# From US20110182982A1, “LIPOSOME TREATMENT OF VIRAL INFECTIONS” (University of Oxford, priority 2006, published 2011)
# How the values were obtained:
# CHO cells = test: Liposome uptake (Rh-PE) and intracellular calcein dequenching; type: cell-based, Chinese hamster
# Method: The effects of different DNJ compounds on the cellular uptake and intracellular release, when encapsulated inside DCPP liposomes, was determined by diluting compounds in 80-mM calcein and incorporating Rh-PE in liposome membranes as previously described, with the final liposome composition being DOPE:CHEMS:PEG-PE:Rh-PE (DCPP-Rh, 6:4:0.3:0.1) Liposomes encapsulating calcein alone, 10-μM DNJ, 1-mM DNJ, 10-μM NB-DNJ, 1-mM NB-DNJ, 10-μM NN-DNJ, or 1-mM NN-DNJ, were incubated with CHO cells for 45 min before liposomes were removed and cells were washed twice in 1×PBS. Cells were then analyzed in a fluorometer to measure calcein dequenching (λex=490 and λem=520 nm) and rhodamine fluorescence (λex=584 and λem=612 nm). Data represent the mean±S.D. obtained from triplicates of four independent experiments, where mean rhodamine fluorescence values reflect the binding and uptake of liposomes and the mean calcein fluorescence reflects the intracellular dequenching of the dye (i.e. dye released from liposomes into intracellular compartments). Results are expressed as the percent fluorescence measured following incubation with DNJ-containing liposomes as compared to the calcein/PBS-only liposome control (=100% on the x axis).
# The calculated ratio of calcein to rhodamine fluorescence is taken as a measure of the amount of aqueous marker released per cell-associated liposome, and represents the efficiency of intracellular delivery.
# [1] = pH sensitivity of DCPP liposomes (calcein leakage); type: physicochemical; conditions: 1 mM encapsulated, pH 5.0-7.4, vs calcein only liposomes
# Method: DCPP liposomes encapsulating 1-mM DNJ, NB-DNJ, or NN-DNJ in 80-mM calcein buffer were compared with empty (calcein only) liposomes to determine the effects of the alkyl chain of NB-DNJ and NN-DNJ on the pH-sensitivity. 10 μl of calcein-loaded DCPP liposomes (final phospholipid concentration, 5 μM) was added to 2 ml of MES-buffered saline at various pH values ranging from 5.0-7.4, and left to incubate with shaking 15 min at 37° C. Following incubation, calcein fluorescence was measured before and after the addition of Triton to a final concentration of 0.1%. Fluorescence intensities obtained at acidic pH values were corrected for the slight effect of pH on calcein fluorescence. The percentage of calcein release at each pH was calculated using the formula: % leakage=((in−I0)/(I100−I0))×100, where I0 is the fluorescence at neutral pH, In is the corrected intensity at acidic pH before the addition of Triton, and I100 is the total dequenched calcein at neutral pH.
# Hepatitis C virus = conditions: alone or in combination with ribavirin; cited from earlier work
# [2] = encapsulated into DCPP liposomes
# [3] = 10 μM encapsulated in DCPP liposomes
# [4] = 1 mM encapsulated in DCPP liposomes
# [5] = encapsulated in DCPP-Rh liposomes
Compound,"Efficiency (calcein/rhodamine, AU) (CHO cells; [3])","Efficiency (calcein/rhodamine, AU) (CHO cells; [4])",effect on calcein dequenching (intracellular release) (CHO cells; [5]),pH sensitivity / stability of DCPP liposomes [1],cellular uptake of liposomes (CHO cells; [5]),patients in whom therapy is effective (Hepatitis C virus),change of ER delivery of the peptide [2]
"OC[C@H]1NC[C@H](O)[C@@H](O)[C@@H]1O [DNJ, deoxynojirimycin]",10.4 ± 1.8 AU,10.8 ± 2.0 AU,no effect,no difference in stability,–,–,–
"CCCCCCCCCN1C[C@H](O)[C@@H](O)[C@H](O)[C@H]1CO [NN-DNJ, N-nonyl deoxynojirimycin]",4.4 ± 1.3 AU,3.2 ± 1.1 AU,no effect,significant decrease in pH sensitivity,increase in cellular uptake,–,–
interferon,–,–,–,–,–,up to 80%,–
CSCC[C@H](NC(=O)[C@@H](NC(=O)CNC(=O)[C@H](CC(=O)O)NC(=O)[C@H](CCSC)NC(=O)[C@@H](N)Cc1ccc(O)cc1)[C@@H](C)O)C(=O)N[C@@H](CO)C(=O)N[C@@H](CCC(N)=O)C(=O)N[C@H](C(=O)O)C(C)C [YMDGTMSQV],–,–,–,–,–,–,reduces the ER delivery of the peptide by an order of magnitude
